Molecules are shown by their SMILES.

For the first assay, the system named is IL-6 production in rat adjuvant arthritis model. Kind of assay: IL-6 production inhibition test in rat adjuvant arthritis model. Format: in vivo, LEW rats. As to conditions: single dose, administration of 3 mg/kg, left ankle, read-out: rate of inhibition of IL-6 production. The method, then: IL-6 Production Inhibition Test in Rat Adjuvant Arthritis Model
A single-dose drug efficacy test using rat adjuvant arthritis models was carried out by modifying the method of Magari. K et al. (J. Rheumatol. 30 (10), 2193 (2003)).
LEW rats (female, supplied by Charles River Laboratories Japan, Inc.) were used as laboratory animals. An adjuvant prepared from heat-killed bacteria of Mycobacterium butyricum (264010 manufactured by Difco Laboratories Ltd.) and liquid paraffin (manufactured by Wako Pure Chemical Industries, Ltd., Code No. 128-04375) was subcutaneously administered as a phlogogenic material to the right hind leg footpads of the rats under inhalation anesthesia with isoflurane (manufactured by Wako Pure Chemical Industries, Ltd., Code No. 099-06571) to prepare arthritis models. Approximately 2 weeks later, left paw edema was measured with a paw volume meter (model TK-101CMP manufactured by Unicorn Co., Ltd.), and grouping was performed such that the average volume of left paw edema was equal among groups. A test compound or only a solvent was administered, after a certain time, they were sacrificed by exsanguination from the abdomens under isoflurane anesthesia, and the left ankles were collected, chopped, and frozen by using liquid nitrogen. The collected left ankle portions were disrupted in CRYOPress (model CP-100WP manufactured by Microtec Co., Ltd.), then supplemented with a buffer solution, shaken overnight at 4° C., and then centrifuged to collected a supernatant. The preparation of the buffer solution was performed by mixing a Tris buffer solution (pH 7.4), sodium chloride (NaCl), phenyl methyl sulfonyl fluoride (PMSF), Triton X-100, EDTA-free complete tablets (manufactured by F. Hoffmann-La Roche, Ltd., REF. 11 873 580 001), and Otsuka distilled water (manufactured by Otsuka Pharmaceutical Co., Ltd., product No. 1323). IL-6 in the collected supernatant was measured by using a sandwich ELISA kit (manufactured by R&D Systems, Inc., Catalog No. S6050).
The IL-6 content of each sample was calculated from the calibration curve of Standard IL-6 included in the kit. When the amount of IL-6 produced in the solvent administration control group was defined as 100%, the rate of inhibition of IL-6 production (%) at each dose of the test compound was calculated.
In the case of `COC[C@@H](NC(=O)N1Cc2c(NC(=O)C3([Si](C)(C)C)CCC3)n[nH]c2C1(C)C)c1ccccc1` [IV-123, (S)—N-(2-Methoxy-1-phenylethyl)-6,6-dimethyl-3-[1-(trimethylsilyl)cyclobutanecarboxamido]-4,6-dihydropyrrolo[3,4-c]pyrazole-5(1H)-carboxamide], the inhibition in vivo at 3 mg/kg is not below 50%. The same measure, in the same setting: the result for `CCOC[C@@H](NC(=O)N1Cc2c(NC(=O)C3([Si](C)(C)C)CCC3)n[nH]c2C1(C)C)c1ccccc1` [IV-139, (S)—N-(2-Ethoxy-1-phenylethyl)-6,6-dimethyl-3-[1-(trimethylsilyl)cyclobutanecarboxamido]-4,6-dihydropyrrolo[3,4-c]pyrazole-5(1H)-carboxamide] reads not below 50%; that for `CC1(C)c2[nH]nc(NC(=O)C3([Si](C)(C)C)CCC3)c2CN1C(=O)N[C@H](CCO)c1ccccc1` [IV-227, (R)—N-(3-Hydroxy-1-phenylpropyl)-6,6-dimethyl-3-[1-(trimethylsilyl)cyclobutanecarboxamido]-4,6-dihydropyrrolo[3,4-c]pyrazole-5(1H)-carboxamide], not below 50%; that for `CC(C)(O)C[C@@H](NC(=O)N1Cc2c(NC(=O)C3([Si](C)(C)C)CCC3)n[nH]c2C1(C)C)c1ccccc1` [IV-299, (R)—N-(3-Hydroxy-3-methyl-1-phenylbutyl)-6,6-dimethyl-3-[1-(trimethylsilyl)cyclobutanecarboxamido]-4,6-dihydropyrrolo[3,4-c]pyrazole-5(1H)-carboxamide], not below 50%.

As to `CC1(C)c2[nH]nc(NC(=O)C3([Si](C)(C)C)CCC3)c2CN1C(=O)C(CO)c1ccccc1` (stereo not drawn) [IV-632, N-[5-(3-Hydroxy-2-phenylpropanoyl)-6,6-dimethyl-1,4,5,6-tetrahydropyrrolo[3,4-c]pyrazol-3-yl]-1-(trimethylsilyl)cyclobutanecarboxamide], the inhibition in vivo at 3 mg/kg was not below 50%.

Still in this assay, the particulars now being: single dose, administration of 10 mg/kg, left ankle, read-out: rate of inhibition of IL-6 production.
As to `CC1(C)c2[nH]nc(NC(=O)C(C)(C)[Si](C)(C)C)c2CN1C(=O)N[C@H](CO)c1ccccc1` [II-114, (S)—N-(2-Hydroxy-1-phenylethyl)-6,6-dimethyl-3-[2-methyl-2-(trimethylsilyl)propanamido]-4,6-dihydropyrrolo[3,4-c]pyrazole-5(1H)-carboxamide], the inhibition in vivo at 10 mg/kg was not below 50%. The same measure, in the same setting: under `CC1(C)c2[nH]nc(NC(=O)C3([Si](C)(C)C)CCC3)c2CN1C(=O)O[C@H](CO)c1ccccc1` [IV-2, (S)-2-Hydroxy-1-phenylethyl 6,6-dimethyl-3-[1-(trimethylsilyl)cyclobutanecarboxamido]-4,6-dihydropyrrolo[3,4-c]pyrazole-5(1H)-carboxylate] stands not below 50%; under `CN(C(=O)N1Cc2c(NC(=O)C3([Si](C)(C)C)CCC3)n[nH]c2C1(C)C)[C@H](CO)c1ccccc1` [IV-119, (S)—N-(2-Hydroxy-1-phenylethyl)-N,6,6-trimethyl-3-[1-(trimethylsilyl)cyclobutanecarboxamido]-4,6-dihydropyrrolo[3,4-c]pyrazole-5(1H)-carboxamide], not below 50%.

Regarding `CC(C)(O)[C@@H](NC(=O)N1Cc2c(NC(=O)C3([Si](C)(C)C)CCC3)n[nH]c2C1(C)C)c1ccccc1` [IV-171, (S)—N-(2-Hydroxy-2-methyl-1-phenylpropyl)-6,6-dimethyl-3-[1-(trimethylsilyl)cyclobutanecarboxamido]-4,6-dihydropyrrolo[3,4-c]pyrazole-5(1H)-carboxamide], the inhibition in vivo at 10 mg/kg is not below 50%.

The record behind these values is US10131679B2, “Substituted dihydropyrrolopyrazole compound” (UBE INDUSTRIES, LTD., priority 2014, dated 2018).
